Test results as given in patent US20240165282A1, “CONFORMATIONAL CONSTRAINED SOMATOSTATIN RECEPTOR 3 PEPTIDE LIGANDS AND THEIR CONJUGATES AND USES THEREOF” (STARGET PHARMA LTD., priority 2021, published 2024).
pIC50, pKi: −log10 of the molar value. *1 amine or outer side, *2 acyl side, *3 side chain or, on linkers, in order; H or OH if unused. Where a SMILES comes first, the peptide text is derived from it. Bridges are numbered along the chain shown (N, C = ends). [ ]: non-standard residue; d: D form. The star is where a group is joined. DOTA = O=C(O)CN1CCN(CC(=O)O)CCN(CC(=O)*)CCN(CC(=O)O)CC1; N(2-mercaptoethyl)Gly = O=C(CN(CCS[*:3])[*:1])[*:2]

Key:
[1] = test system: 44 human cloned GPCRs and GPCR mediated cellular enzymatic activities; assay: Eurofins Cerep off-target safety pharmacology panel; assay type: binding; conditions: 1 micromolar
Experimental: (§1) In this example, off-target interactions for SEQ ID NO.
(§2) The assays were performed by Eurofins Cerep (Celle 1'Evescault, France). Compound binding was calculated as a % inhibition of the binding of a radioactively labeled ligand specific for each target. Compound enzyme inhibition effect was calculated as a % inhibition of control enzyme activity. In each experiment and if applicable, the respective reference compound was tested concurrently with SEQ ID NO. 3, and the data were compared with historical values determined at Eurofins. The experiment was accepted in accordance with Eurofins validation Standard Operating Procedure. Results showing an inhibition (or stimulation for assays run in basal conditions) higher than 50% are considered to represent significant effects of the test compounds.
Results showing an inhibition (or stimulation) between 25% and 50% are indicative of weak to moderate effects (in most assays, they should be confirmed by further testing as they are within a range where more inter-experimental variability can occur). […]
Low to moderate negative values have no real meaning and are attributable to variability of the signal around the control level. […] The results are expressed as a percent of control specific binding measured specific binding

SSTR3 = SSTR3 (Homo sapiens, UniProt P32745); assay: Radioligand binding, displacement of 125I-Tyr11-SRIF-14; design: host or cells: CHO (Chinese Hamster Ovary) cells, membrane preparation
In short: (§3)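 Assays ran at 25 °C in 25 mM HEPES pH 7.4 with 5 mM MgCl2, 1 mM CaCl2, 0.1% BSA and 1% DMSO. Filter-bound radioactivity gave IC50 by nonlinear least-squares regression.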

SSTR2 = SSTR2 (Homo sapiens, UniProt P30874); assay: as above; design: host or cells: CHO (Chinese Hamster Ovary) cells, membrane preparation
In short: as §3

SSTR1 = SSTR1 (Homo sapiens, UniProt P30872); assay: as above; design: host or cells: CHO (Chinese Hamster Ovary) cells, membrane preparation
In short: as §3

5-HT1A (h) = target: T1, 5-HT1A (h) (Homo sapiens, UniProt P08908); assay: Cerep off-target radioligand binding; conditions: 1 micromolar; agonist radioligand; read-out: % Activity: Inhibition of Control Specific Binding
T1 construct: Eurofins Cerep (contract assay)
Experimental: as §1, §2

mu (MOP) (h) = target: T2, mu (MOP) (h) (Homo sapiens, UniProt P35372); assay: Cerep off-target radioligand binding; conditions: 1 micromolar; agonist radioligand; read-out: % Activity: Inhibition of Control Specific Binding
T2 construct: Eurofins Cerep (contract assay)
Experimental: as §1, §2

5-HT3 (h) = target: T3, 5-HT3 (h) (Homo sapiens, UniProt P46098); assay: Cerep off-target radioligand binding; conditions: 1 micromolar; antagonist radioligand; read-out: % Activity: Inhibition of Control Specific Binding
T3 construct: Eurofins Cerep (contract assay)
Experimental: as §1, §2

CB1 (h) = CB1 (h) (Homo sapiens, UniProt P21554); assay: Cerep off-target radioligand binding; conditions: 1 micromolar; agonist radioligand; read-out: % Activity: Inhibition of Control Specific Binding
Experimental: as §1, §2

alpha 2A (h) = alpha 2A (h) (Homo sapiens, UniProt P08913); assay: Cerep off-target radioligand binding; conditions: 1 micromolar; antagonist radioligand; read-out: % Activity: Inhibition of Control Specific Binding
Experimental: as §1, §2

beta 2 (h) = beta 2 (h) (Homo sapiens, UniProt P07550); assay: Cerep off-target radioligand binding; conditions: 1 micromolar; antagonist radioligand; read-out: % Activity: Inhibition of Control Specific Binding
Experimental: as §1, §2

[2] = target: T4, norepinephrine transporter (h) (Homo sapiens, UniProt P23975); assay: Cerep off-target radioligand binding; conditions: 1 micromolar; antagonist radioligand; read-out: % Activity: Inhibition of Control Specific Binding
T4 construct: Eurofins Cerep (contract assay)
Experimental: as §1, §2

5-HT2A (h) = target: T5, 5-HT2A (h) (Homo sapiens, UniProt P28223); assay: Cerep off-target radioligand binding; conditions: 1 micromolar; agonist radioligand; read-out: % Activity: Inhibition of Control Specific Binding
T5 construct: Eurofins Cerep (contract assay)
Experimental: as §1, §2

beta 1 (h) = beta 1 (h) (Homo sapiens, UniProt P08588); assay: Cerep off-target radioligand binding; conditions: 1 micromolar; agonist radioligand; read-out: % Activity: Inhibition of Control Specific Binding
Experimental: as §1, §2

M2 (h) = M2 (h) (Homo sapiens, UniProt P08172); assay: Cerep off-target radioligand binding; conditions: 1 micromolar; antagonist radioligand; read-out: % Activity: Inhibition of Control Specific Binding
Experimental: as §1, §2

M1 (h) = M1 (h) (Homo sapiens, UniProt P11229); assay: Cerep off-target radioligand binding; conditions: 1 micromolar; antagonist radioligand; read-out: % Activity: Inhibition of Control Specific Binding
Experimental: as §1, §2

5-HT1B (h) = target: T6, 5-HT1B (h) (Homo sapiens, UniProt P28222); assay: Cerep off-target radioligand binding; conditions: 1 micromolar; antagonist radioligand; read-out: % Activity: Inhibition of Control Specific Binding
T6 construct: Eurofins Cerep (contract assay)
Experimental: as §1, §2

PDE3A (h) = target: T7, PDE3A (h) (Homo sapiens, UniProt Q14432); assay: Cerep off-target enzyme inhibition; assay type: biochemical; conditions: 1 micromolar; Enzymatic; read-out: % Activity: Inhibition of Control Specific Binding
T7 construct: Eurofins Cerep (contract assay)
Experimental: as §1, §2

PDE4D2 (h) = target: T8, PDE4D2 (h) (Homo sapiens, UniProt Q08499); assay: Cerep off-target enzyme inhibition; assay type: biochemical; conditions: 1 micromolar; Enzymatic; read-out: % Activity: Inhibition of Control Specific Binding
T8 construct: Eurofins Cerep (contract assay)
Experimental: as §1, §2

COX1(h) = target: T9, COX1(h) (Homo sapiens, UniProt P23219); assay: Cerep off-target enzyme inhibition; assay type: biochemical; conditions: 1 micromolar; Enzymatic; read-out: % Activity: Inhibition of Control Specific Binding
T9 construct: Eurofins Cerep (contract assay)
Experimental: as §1, §2

COX2(h) = target: T10, COX2(h) (Homo sapiens, UniProt P35354); assay: Cerep off-target enzyme inhibition; assay type: biochemical; conditions: 1 micromolar; Enzymatic; read-out: % Activity: Inhibition of Control Specific Binding
T10 construct: Eurofins Cerep (contract assay)
Experimental: as §1, §2

acetylcholinesterase (h) = target: T11, acetylcholinesterase (h) (Homo sapiens, UniProt P22303); assay: Cerep off-target enzyme inhibition; assay type: biochemical; conditions: 1 micromolar; Enzymatic; read-out: % Activity: Inhibition of Control Specific Binding
T11 construct: Eurofins Cerep (contract assay)
Experimental: as §1, §2

Lck kinase (h) = target: T12, Lck kinase (h) (Homo sapiens, UniProt P06239); assay: Cerep off-target enzyme inhibition; assay type: biochemical; conditions: 1 micromolar; Enzymatic; read-out: % Activity: Inhibition of Control Specific Binding
T12 construct: Eurofins Cerep (contract assay)
Experimental: as §1, §2

SSTR1, sequence (P30872 whole entry): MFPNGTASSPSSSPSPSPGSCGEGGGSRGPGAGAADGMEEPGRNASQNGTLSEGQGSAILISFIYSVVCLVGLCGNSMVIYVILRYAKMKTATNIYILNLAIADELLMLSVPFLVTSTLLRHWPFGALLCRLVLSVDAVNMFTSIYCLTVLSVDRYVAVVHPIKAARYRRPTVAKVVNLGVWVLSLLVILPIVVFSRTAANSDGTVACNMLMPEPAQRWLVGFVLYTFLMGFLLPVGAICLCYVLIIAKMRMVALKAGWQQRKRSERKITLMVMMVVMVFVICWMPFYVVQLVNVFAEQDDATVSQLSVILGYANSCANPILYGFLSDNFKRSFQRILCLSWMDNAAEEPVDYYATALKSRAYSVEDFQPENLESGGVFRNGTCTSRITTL
SSTR2, sequence (P30874 whole entry): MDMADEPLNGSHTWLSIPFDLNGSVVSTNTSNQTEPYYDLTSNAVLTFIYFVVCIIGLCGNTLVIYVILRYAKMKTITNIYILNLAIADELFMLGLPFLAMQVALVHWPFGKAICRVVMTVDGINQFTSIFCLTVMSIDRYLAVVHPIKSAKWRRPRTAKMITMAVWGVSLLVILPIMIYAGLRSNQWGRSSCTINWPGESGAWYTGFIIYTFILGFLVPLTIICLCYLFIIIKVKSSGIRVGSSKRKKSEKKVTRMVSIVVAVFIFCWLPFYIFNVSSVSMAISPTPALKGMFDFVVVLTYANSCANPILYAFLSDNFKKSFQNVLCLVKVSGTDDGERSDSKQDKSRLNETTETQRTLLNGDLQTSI
SSTR3, sequence (P32745 whole entry): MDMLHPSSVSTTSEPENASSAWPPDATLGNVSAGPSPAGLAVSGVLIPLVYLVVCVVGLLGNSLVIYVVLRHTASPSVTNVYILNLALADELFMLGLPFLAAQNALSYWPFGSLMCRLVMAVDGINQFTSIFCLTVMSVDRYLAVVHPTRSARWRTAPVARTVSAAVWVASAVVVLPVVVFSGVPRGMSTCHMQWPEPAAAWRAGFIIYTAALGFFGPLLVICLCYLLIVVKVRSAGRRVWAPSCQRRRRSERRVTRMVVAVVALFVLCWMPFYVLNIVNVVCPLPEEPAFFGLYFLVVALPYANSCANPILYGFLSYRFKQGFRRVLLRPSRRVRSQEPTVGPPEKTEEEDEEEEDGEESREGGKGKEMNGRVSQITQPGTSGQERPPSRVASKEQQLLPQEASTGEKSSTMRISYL
T5 sequence (P28223 whole entry): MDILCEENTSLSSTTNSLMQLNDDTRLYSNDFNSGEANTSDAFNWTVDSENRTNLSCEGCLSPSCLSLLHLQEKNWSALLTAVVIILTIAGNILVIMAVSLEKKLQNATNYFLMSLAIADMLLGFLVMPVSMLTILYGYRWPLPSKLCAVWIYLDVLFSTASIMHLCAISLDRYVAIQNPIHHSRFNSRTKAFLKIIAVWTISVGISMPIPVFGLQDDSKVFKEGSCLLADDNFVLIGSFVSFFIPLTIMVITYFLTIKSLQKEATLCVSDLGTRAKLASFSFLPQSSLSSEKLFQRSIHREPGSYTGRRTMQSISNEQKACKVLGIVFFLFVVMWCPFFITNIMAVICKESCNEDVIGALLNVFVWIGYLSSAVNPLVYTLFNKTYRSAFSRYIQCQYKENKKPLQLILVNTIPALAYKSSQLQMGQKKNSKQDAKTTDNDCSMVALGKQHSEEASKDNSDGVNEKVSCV
alpha 2A (h), sequence (P08913 whole entry): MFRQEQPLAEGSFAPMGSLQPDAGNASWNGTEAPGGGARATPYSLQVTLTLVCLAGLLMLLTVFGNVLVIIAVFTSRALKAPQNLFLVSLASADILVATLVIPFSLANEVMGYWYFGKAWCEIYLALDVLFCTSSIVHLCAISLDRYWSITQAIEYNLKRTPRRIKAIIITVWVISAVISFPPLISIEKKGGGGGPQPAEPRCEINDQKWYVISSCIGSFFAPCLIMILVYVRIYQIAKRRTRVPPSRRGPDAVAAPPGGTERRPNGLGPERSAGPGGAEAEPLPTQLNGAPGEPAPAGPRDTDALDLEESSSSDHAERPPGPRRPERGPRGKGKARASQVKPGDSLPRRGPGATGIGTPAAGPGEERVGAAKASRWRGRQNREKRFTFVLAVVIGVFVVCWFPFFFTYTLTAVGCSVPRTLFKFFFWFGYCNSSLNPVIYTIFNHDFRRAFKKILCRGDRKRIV
T7 sequence (Q14432 whole entry): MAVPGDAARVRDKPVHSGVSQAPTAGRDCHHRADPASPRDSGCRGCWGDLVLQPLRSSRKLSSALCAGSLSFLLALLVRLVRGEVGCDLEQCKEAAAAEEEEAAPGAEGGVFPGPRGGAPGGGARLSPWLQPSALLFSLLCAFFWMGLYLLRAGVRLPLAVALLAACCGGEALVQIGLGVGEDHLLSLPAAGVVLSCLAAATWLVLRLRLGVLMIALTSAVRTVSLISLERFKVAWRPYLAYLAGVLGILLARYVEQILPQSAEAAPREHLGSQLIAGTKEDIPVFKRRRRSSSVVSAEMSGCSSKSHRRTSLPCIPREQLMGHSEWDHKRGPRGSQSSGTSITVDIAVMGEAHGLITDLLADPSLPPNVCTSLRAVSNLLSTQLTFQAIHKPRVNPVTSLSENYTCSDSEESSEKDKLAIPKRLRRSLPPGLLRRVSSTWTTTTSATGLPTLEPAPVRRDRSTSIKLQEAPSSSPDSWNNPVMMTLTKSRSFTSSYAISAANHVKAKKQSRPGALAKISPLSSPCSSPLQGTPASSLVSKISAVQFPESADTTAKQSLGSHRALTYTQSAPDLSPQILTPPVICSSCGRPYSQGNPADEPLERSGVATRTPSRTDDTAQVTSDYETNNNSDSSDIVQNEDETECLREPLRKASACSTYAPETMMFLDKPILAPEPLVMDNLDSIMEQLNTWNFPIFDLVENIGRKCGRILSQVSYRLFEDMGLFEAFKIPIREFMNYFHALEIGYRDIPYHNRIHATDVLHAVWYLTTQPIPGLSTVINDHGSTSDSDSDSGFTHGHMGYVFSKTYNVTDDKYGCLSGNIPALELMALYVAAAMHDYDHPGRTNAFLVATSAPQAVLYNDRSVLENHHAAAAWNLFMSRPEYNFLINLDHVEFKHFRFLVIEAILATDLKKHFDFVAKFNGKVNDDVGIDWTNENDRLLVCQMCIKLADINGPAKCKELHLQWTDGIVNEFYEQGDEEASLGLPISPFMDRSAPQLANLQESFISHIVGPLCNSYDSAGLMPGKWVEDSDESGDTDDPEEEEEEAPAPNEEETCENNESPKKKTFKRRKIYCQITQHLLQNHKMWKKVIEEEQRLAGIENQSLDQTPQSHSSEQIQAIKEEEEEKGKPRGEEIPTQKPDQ
T8 sequence (Q08499 303-809): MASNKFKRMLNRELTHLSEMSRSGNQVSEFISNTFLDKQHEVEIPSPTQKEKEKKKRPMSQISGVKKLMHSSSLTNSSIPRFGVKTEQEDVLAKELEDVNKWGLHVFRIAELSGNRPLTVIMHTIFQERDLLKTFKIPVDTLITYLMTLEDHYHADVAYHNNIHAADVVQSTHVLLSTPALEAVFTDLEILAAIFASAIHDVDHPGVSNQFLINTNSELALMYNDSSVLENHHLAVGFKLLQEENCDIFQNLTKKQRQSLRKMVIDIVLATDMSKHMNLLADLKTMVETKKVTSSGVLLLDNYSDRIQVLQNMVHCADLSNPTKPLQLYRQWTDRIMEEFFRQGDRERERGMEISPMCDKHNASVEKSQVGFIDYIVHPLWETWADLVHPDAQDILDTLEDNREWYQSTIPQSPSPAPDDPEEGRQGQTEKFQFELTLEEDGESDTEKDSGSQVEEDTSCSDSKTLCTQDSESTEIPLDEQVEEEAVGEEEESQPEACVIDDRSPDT
beta 2 (h), sequence (P07550 whole entry): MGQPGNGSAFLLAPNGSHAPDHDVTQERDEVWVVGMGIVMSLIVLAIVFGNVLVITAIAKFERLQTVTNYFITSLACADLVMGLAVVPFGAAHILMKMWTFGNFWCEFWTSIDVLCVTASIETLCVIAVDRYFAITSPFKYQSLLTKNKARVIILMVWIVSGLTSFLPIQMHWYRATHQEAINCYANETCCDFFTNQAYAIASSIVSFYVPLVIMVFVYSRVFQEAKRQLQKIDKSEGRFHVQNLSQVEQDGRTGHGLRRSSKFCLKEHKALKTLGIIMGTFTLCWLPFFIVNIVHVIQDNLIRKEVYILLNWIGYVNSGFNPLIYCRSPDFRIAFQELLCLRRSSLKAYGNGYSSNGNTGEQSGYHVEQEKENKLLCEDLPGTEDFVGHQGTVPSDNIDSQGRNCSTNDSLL
T2 sequence (P35372 whole entry): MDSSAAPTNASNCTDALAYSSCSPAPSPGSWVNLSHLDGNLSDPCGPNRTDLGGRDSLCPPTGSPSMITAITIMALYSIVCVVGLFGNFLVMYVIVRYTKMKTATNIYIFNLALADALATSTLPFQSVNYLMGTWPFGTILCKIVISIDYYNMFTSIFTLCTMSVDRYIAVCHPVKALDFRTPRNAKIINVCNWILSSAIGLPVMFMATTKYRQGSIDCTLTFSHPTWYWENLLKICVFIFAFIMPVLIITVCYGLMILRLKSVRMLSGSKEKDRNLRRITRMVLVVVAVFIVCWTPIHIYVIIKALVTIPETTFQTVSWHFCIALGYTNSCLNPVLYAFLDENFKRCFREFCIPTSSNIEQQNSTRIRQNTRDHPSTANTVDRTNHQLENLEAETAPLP
T1 sequence (P08908 whole entry): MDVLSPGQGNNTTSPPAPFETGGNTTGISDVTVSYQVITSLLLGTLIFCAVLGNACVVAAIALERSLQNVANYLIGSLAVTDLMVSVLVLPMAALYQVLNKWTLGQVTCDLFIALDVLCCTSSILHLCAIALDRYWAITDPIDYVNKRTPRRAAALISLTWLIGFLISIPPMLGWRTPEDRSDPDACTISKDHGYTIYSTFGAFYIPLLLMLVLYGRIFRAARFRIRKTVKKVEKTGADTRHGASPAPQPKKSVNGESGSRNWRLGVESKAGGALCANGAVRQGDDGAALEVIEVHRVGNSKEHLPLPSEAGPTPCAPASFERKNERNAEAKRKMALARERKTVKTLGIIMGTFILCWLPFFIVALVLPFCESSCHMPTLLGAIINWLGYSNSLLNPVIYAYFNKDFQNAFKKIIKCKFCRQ

C[C@@H](O)[C@@H]1NC(=O)[C@H](CCCCN)NC(=O)[C@@H](Cc2c[nH]c3ccccc23)NC(=O)[C@H](Cc2ccccc2)NC(=O)[C@@H](NC(=O)[C@H](CCCNC(=N)N)NC(=O)[C@@H](Cc2ccccc2)NC(=O)CN2CCN(CC(=O)O)CCN(CC(=O)O)CCN(CC(=O)O)CC2)CSSCCN(CC(N)=O)C(=O)[C@H](Cc2ccccc2)NC1=O [SEQ ID NO: 3, DOTA-D-Phe^1-Arg^2-Cys^3-Phe^4-D-Trp^5-Lys^6-Thr^7-Phe^8-NTEG^9-NH2 cyclo 3-9] ({DOTA}-[dF]RCF[dW]KTF[N(2-mercaptoethyl)Gly]-NH2; disulfide 3-9)
off-target interactions with opiate receptors [1]: not indicated | off-target interactions, safety pharmacology panel (in words) [1]: no interaction with human cloned GPCRs of clinical significance | pIC50 (SSTR3): 9.08 | pKi (SSTR3): 9.55 | affinity and selectivity to SSTR3 (in words) (SSTR3; binding data, listed as DOTA conjugate of SEQ ID NO: 1): did not interfere with the binding affinity and selectivity of SEQ ID NO: 1 | Hill coefficient (nH) (SSTR3; hSSTR-3): 1.15 | pIC50 (SSTR2): 6.23 | pKi (SSTR2): 6.51 | Hill coefficient (nH) (SSTR2; hSSTR-2): 1.62 | pIC50 (SSTR1): 6.51 | pKi (SSTR1): 6.59 | Hill coefficient (nH) (SSTR1; hSSTR-1): 0.86 | inhibition at 1 µM (5-HT1A (h)): -3% | inhibition at 1 µM (mu (MOP) (h)): 8% | inhibition at 1 µM (5-HT3 (h)): 1% | inhibition at 1 µM (CB1 (h)): 1% | inhibition at 1 µM (alpha 2A (h)): 2% | inhibition at 1 µM (beta 2 (h)): -6% | inhibition at 1 µM [2]: -10% | inhibition at 1 µM (5-HT2A (h)): -2% | inhibition at 1 µM (beta 1 (h)): 5% | inhibition at 1 µM (M2 (h)): -4% | inhibition at 1 µM (M1 (h)): -3% | inhibition at 1 µM (5-HT1B (h)): 1% | inhibition at 1 µM (PDE3A (h)): 0% | inhibition at 1 µM (PDE4D2 (h)): -2% | inhibition at 1 µM (COX1(h)): 9% | inhibition at 1 µM (COX2(h)): 18% | inhibition at 1 µM (acetylcholinesterase (h)): 6% | inhibition at 1 µM (Lck kinase (h)): -4%
